Results from ChEMBL document CHEMBL1201862, “PubChem BioAssay data set” (2004).
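Growth conditions: 96-well plates. Treatment: test compound, 48 hours, 5 concentrations. Analysis: linear interpolation between bracketing concentrations; unreached endpoints set to highest concentration. GI50 marks 50% less growth.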 The source made the active and inactive calls. No stated cut-off is given here; in the data, active = GI50 up to about 1.1 µM and inactive = higher.

What was measured:
Assay in all cases: DTP human tumour cell line panel, 48 h
SF-295 = system: SF-295
IGROV-1 = system: IGROV-1
OVCAR-5 = system: OVCAR-5
KM12 = system: KM12
SK-MEL-2 = system: SK-MEL-2
ACHN = system: ACHN
SN12C = system: SN12C
UO-31 = system: UO-31
NCI-H522 = system: NCI-H522
MOLT-4 = system: MOLT-4
SF-539 = system: SF-539
A498 = system: A498
HOP-92 = system: HOP-92
CCRF-CEM = system: CCRF-CEM
HOP-62 = system: HOP-62
HCT-15 = system: HCT-15

CC(C)C(=O)/C=C/c1ccccc1
GI50 (SF-295): 91.2 µM (inactive) | GI50 (IGROV-1): > 100 µM (inactive) | GI50 (OVCAR-5): > 100 µM (inactive) | GI50 (KM12): 69.7 µM (inactive) | GI50 (SK-MEL-2): > 100 µM (inactive) | GI50 (ACHN): 81.5 µM (inactive) | GI50 (SN12C): 79.3 µM (inactive) | GI50 (UO-31): > 100 µM (inactive) | GI50 (NCI-H522): 31 µM (inactive) | GI50 (MOLT-4): 54.3 µM (inactive) | GI50 (SF-539): > 100 µM (inactive) | GI50 (A498): > 100 µM (inactive) | GI50 (HOP-92): > 100 µM (inactive) | GI50 (CCRF-CEM): 23.9 µM (inactive)

CCOC(=O)/C(=C/c1ccc(C#N)cc1)N(CC)CC
GI50 (SF-295): 1.88 µM (inactive) | GI50 (IGROV-1): > 100 µM (inactive) | GI50 (OVCAR-5): > 100 µM (inactive) | GI50 (KM12): > 100 µM (inactive) | GI50 (SK-MEL-2): > 100 µM (inactive) | GI50 (ACHN): > 100 µM (inactive) | GI50 (SN12C): > 100 µM (inactive) | GI50 (HOP-62): > 100 µM (inactive) | GI50 (UO-31): > 100 µM (inactive) | GI50 (NCI-H522): > 100 µM (inactive) | GI50 (MOLT-4): > 100 µM (inactive) | GI50 (SF-539): > 100 µM (inactive) | GI50 (A498): > 100 µM (inactive) | GI50 (HOP-92): > 100 µM (inactive) | GI50 (CCRF-CEM): > 100 µM (inactive) | GI50 (HCT-15): > 100 µM

CC(=O)N1CCC(=O)/C(=C/c2ccccc2)C1
GI50 (SF-295): 42.8 µM (inactive) | GI50 (IGROV-1): 19.8 µM (inactive) | GI50 (OVCAR-5): > 100 µM (inactive) | GI50 (KM12): 24.3 µM (inactive) | GI50 (ACHN): 22.1 µM (inactive) | GI50 (SN12C): 18.2 µM (inactive) | GI50 (HOP-62): 89.3 µM (inactive) | GI50 (UO-31): > 100 µM (inactive) | GI50 (MOLT-4): 33.2 µM (inactive) | GI50 (SF-539): 23.3 µM (inactive) | GI50 (A498): 56.5 µM (inactive) | GI50 (HOP-92): 33.1 µM (inactive) | GI50 (HCT-15): 17.1 µM

Cc1cc(Cl)ccc1NC(=O)C(=O)C(C(=O)c1ccccc1)C1OC(=O)c2ccccc21 (stereo not drawn)
GI50 (SF-295): > 100 µM (inactive) | GI50 (IGROV-1): > 100 µM (inactive) | GI50 (OVCAR-5): > 100 µM (inactive) | GI50 (KM12): > 100 µM (inactive) | GI50 (SK-MEL-2): > 100 µM (inactive) | GI50 (ACHN): > 100 µM (inactive) | GI50 (SN12C): > 100 µM (inactive) | GI50 (HOP-62): > 100 µM (inactive) | GI50 (UO-31): > 100 µM (inactive) | GI50 (NCI-H522): > 100 µM (inactive) | GI50 (MOLT-4): > 100 µM (inactive) | GI50 (SF-539): > 100 µM (inactive) | GI50 (A498): > 100 µM (inactive) | GI50 (HOP-92): > 100 µM (inactive) | GI50 (CCRF-CEM): > 100 µM (inactive) | GI50 (HCT-15): > 100 µM

O=C(/N=N/C(=O)OCc1ccccc1)OCc1ccccc1
GI50 (SF-295): 35 µM (inactive) | GI50 (IGROV-1): > 100 µM (inactive) | GI50 (OVCAR-5): > 100 µM (inactive) | GI50 (KM12): 88.3 µM (inactive) | GI50 (SK-MEL-2): > 100 µM (inactive) | GI50 (ACHN): 76.4 µM (inactive) | GI50 (SN12C): > 100 µM (inactive) | GI50 (HOP-62): > 100 µM (inactive) | GI50 (UO-31): 31.6 µM (inactive) | GI50 (MOLT-4): 31.9 µM (inactive) | GI50 (SF-539): > 100 µM (inactive) | GI50 (HOP-92): 10.4 µM (inactive) | GI50 (CCRF-CEM): 84.1 µM (inactive) | GI50 (HCT-15): 94.2 µM

CC1=C(C(=O)Nc2ccccc2)C(c2ccc(Cl)c(Cl)c2)C(C(=O)Nc2ccccc2)=C(C)N1
GI50 (SF-295): 12.5 µM (inactive) | GI50 (IGROV-1): 14.5 µM (inactive) | GI50 (OVCAR-5): 18.3 µM (inactive) | GI50 (KM12): 13 µM (inactive) | GI50 (ACHN): 12.1 µM (inactive) | GI50 (SN12C): 14.9 µM (inactive) | GI50 (HOP-62): 14.5 µM (inactive) | GI50 (UO-31): 13.2 µM (inactive) | GI50 (NCI-H522): 11.6 µM (inactive) | GI50 (MOLT-4): 0.512 µM (active) | GI50 (SF-539): 17.3 µM (inactive) | GI50 (A498): 16.7 µM (inactive) | GI50 (CCRF-CEM): 5.06 µM (inactive) | GI50 (HCT-15): 10.9 µM

O=C(c1ccc(O)cc1)C1c2c3c(cc(O)c2C(c2ccc(O)cc2)C1c1cc(O)cc(O)c1)OC(c1ccc(O)cc1)C3c1cc2c(cc1O)OC(c1ccc(O)cc1)C2c1cc(O)cc(O)c1 (stereo not drawn)
GI50 (OVCAR-5): > 12.5 µM (inactive) | GI50 (KM12): > 12.5 µM (inactive) | GI50 (SK-MEL-2): > 12.5 µM (inactive) | GI50 (ACHN): > 12.5 µM (inactive) | GI50 (SN12C): > 12.5 µM (inactive) | GI50 (HOP-62): > 12.5 µM (inactive) | GI50 (UO-31): > 12.5 µM (inactive) | GI50 (NCI-H522): > 12.5 µM (inactive) | GI50 (MOLT-4): > 12.5 µM (inactive) | GI50 (SF-539): > 12.5 µM (inactive) | GI50 (A498): > 12.5 µM (inactive) | GI50 (HOP-92): > 12.5 µM (inactive) | GI50 (CCRF-CEM): > 12.5 µM (inactive) | GI50 (HCT-15): > 12.5 µM

CCCCCCCCNC(=O)SCCCC
GI50 (SF-295): 38 µM (inactive) | GI50 (IGROV-1): 46.5 µM (inactive) | GI50 (OVCAR-5): 37.2 µM (inactive) | GI50 (KM12): 55 µM (inactive) | GI50 (SK-MEL-2): 20.9 µM (inactive) | GI50 (ACHN): 34.6 µM (inactive) | GI50 (SN12C): 37.8 µM (inactive) | GI50 (UO-31): 26.5 µM (inactive) | GI50 (NCI-H522): 24.4 µM (inactive) | GI50 (MOLT-4): 22.5 µM (inactive) | GI50 (SF-539): 38.6 µM (inactive) | GI50 (A498): 45.5 µM (inactive) | GI50 (HOP-92): 17.6 µM (inactive) | GI50 (CCRF-CEM): 23.4 µM (inactive) | GI50 (HCT-15): 27.9 µM

COc1ccc2nc(NC(=O)C(=O)C(C#N)c3ccc(Cl)c(Cl)c3)sc2c1 (stereo not drawn)
GI50 (SF-295): > 100 µM (inactive) | GI50 (IGROV-1): > 100 µM (inactive) | GI50 (OVCAR-5): > 100 µM (inactive) | GI50 (KM12): > 100 µM (inactive) | GI50 (SK-MEL-2): > 100 µM (inactive) | GI50 (ACHN): > 100 µM (inactive) | GI50 (SN12C): > 100 µM (inactive) | GI50 (HOP-62): > 100 µM (inactive) | GI50 (UO-31): > 100 µM (inactive) | GI50 (NCI-H522): 36.9 µM (inactive) | GI50 (SF-539): 63.4 µM (inactive) | GI50 (A498): > 100 µM (inactive) | GI50 (HOP-92): 33.9 µM (inactive) | GI50 (CCRF-CEM): > 100 µM (inactive) | GI50 (HCT-15): > 100 µM

COC(=O)[C@@H]1Cc2c([nH]c3ccccc23)[C@H](c2ccccc2)N1
GI50 (SF-295): 26.2 µM (inactive) | GI50 (IGROV-1): 22.8 µM (inactive) | GI50 (OVCAR-5): > 100 µM (inactive) | GI50 (KM12): 36.6 µM (inactive) | GI50 (SK-MEL-2): 32.4 µM (inactive) | GI50 (ACHN): 38.3 µM (inactive) | GI50 (SN12C): 28.2 µM (inactive) | GI50 (UO-31): 29.6 µM (inactive) | GI50 (NCI-H522): 21.7 µM (inactive) | GI50 (MOLT-4): 41.4 µM (inactive) | GI50 (SF-539): 26.4 µM (inactive) | GI50 (A498): 20.9 µM (inactive) | GI50 (HOP-92): 44.9 µM (inactive) | GI50 (CCRF-CEM): 37.3 µM (inactive) | GI50 (HCT-15): 19.4 µM

O=c1[nH]c2c3ccccc3ccc2c2cc3c(cc12)OCO3
GI50 (SF-295): > 100 µM (inactive) | GI50 (IGROV-1): > 100 µM (inactive) | GI50 (OVCAR-5): > 100 µM (inactive) | GI50 (KM12): 75.5 µM (inactive) | GI50 (SK-MEL-2): > 100 µM (inactive) | GI50 (ACHN): 69.3 µM (inactive) | GI50 (SN12C): > 100 µM (inactive) | GI50 (HOP-62): 89.1 µM (inactive) | GI50 (UO-31): 39.4 µM (inactive) | GI50 (NCI-H522): 42.5 µM (inactive) | GI50 (MOLT-4): 40 µM (inactive) | GI50 (SF-539): > 100 µM (inactive) | GI50 (CCRF-CEM): 69.8 µM (inactive) | GI50 (HCT-15): 71.6 µM

C[C@]12CCc3nn(-c4ccccc4)nc3C1CC[C@@H]1C2CC[C@]2(C)C(=O)CCC12 (stereo partly drawn)
GI50 (SF-295): > 100 µM (inactive) | GI50 (IGROV-1): > 100 µM (inactive) | GI50 (OVCAR-5): > 100 µM (inactive) | GI50 (KM12): > 100 µM (inactive) | GI50 (SK-MEL-2): > 100 µM (inactive) | GI50 (ACHN): > 100 µM (inactive) | GI50 (SN12C): > 100 µM (inactive) | GI50 (HOP-62): > 100 µM (inactive) | GI50 (UO-31): > 100 µM (inactive) | GI50 (NCI-H522): > 100 µM (inactive) | GI50 (MOLT-4): > 100 µM (inactive) | GI50 (SF-539): > 100 µM (inactive) | GI50 (HOP-92): > 100 µM (inactive) | GI50 (CCRF-CEM): > 100 µM (inactive) | GI50 (HCT-15): > 100 µM

Clc1ccc(C2SCc3nc4ccccc4n32)cc1Cl (stereo not drawn)
GI50 (SF-295): 11.9 µM (inactive) | GI50 (IGROV-1): 17.3 µM (inactive) | GI50 (OVCAR-5): 10.5 µM (inactive) | GI50 (KM12): 11.8 µM (inactive) | GI50 (SK-MEL-2): 16.2 µM (inactive) | GI50 (ACHN): 13 µM (inactive) | GI50 (SN12C): 12.6 µM (inactive) | GI50 (HOP-62): 14.5 µM (inactive) | GI50 (NCI-H522): 11.5 µM (inactive) | GI50 (MOLT-4): 17.1 µM (inactive) | GI50 (SF-539): 17.1 µM (inactive) | GI50 (HOP-92): 11.2 µM (inactive) | GI50 (CCRF-CEM): 23.7 µM (inactive) | GI50 (HCT-15): 13.3 µM

CC(c1cccc2ccccc12)/[N+]([O-])=C/c1ccccc1 (stereo not drawn)
GI50 (SF-295): > 100 µM (inactive) | GI50 (IGROV-1): > 100 µM (inactive) | GI50 (OVCAR-5): > 100 µM (inactive) | GI50 (KM12): > 100 µM (inactive) | GI50 (SK-MEL-2): > 100 µM (inactive) | GI50 (ACHN): > 100 µM (inactive) | GI50 (HOP-62): > 100 µM (inactive) | GI50 (UO-31): 39.6 µM (inactive) | GI50 (NCI-H522): 78.7 µM (inactive) | GI50 (MOLT-4): > 100 µM (inactive) | GI50 (SF-539): > 100 µM (inactive) | GI50 (A498): > 100 µM (inactive) | GI50 (HOP-92): 29.5 µM (inactive) | GI50 (CCRF-CEM): > 100 µM (inactive)
